In the OligoGym collection one finds normalised inhibition (eCFP-eYFP dual reporter) data, which are given here for 20 substances.

Oligonucleotides are given in HELM: sugar(base)linkage, 5' to 3'; d 2'-deoxyribose, r ribose, m 2'-O-methylribose, p phosphate. ss, as = sense and antisense strand
Note: test concentration or dose not given here.

For the series, the target named is UBE2D3. The series can be described thus: reporter assay of Huesken 2005. As to conditions: siRNA. In general terms: A reporter such as luciferase makes a cellular process visible.
The substance “RNA1{r(G)p.r(G)p.r(U)p.r(C)p.r(G)p.r(C)p.r(C)p.r(U)p.r(G)p.r(C)p.r(U)p.r(U)p.r(U)p.r(A)p.r(A)p.r(C)p.r(A)p.r(A)p.r(U)p.d(T)p.d(T)}|RNA2{r(A)p.r(U)p.r(U)p.r(G)p.r(U)p.r(U)p.r(A)p.r(A)p.r(A)p.r(G)p.r(C)p.r(A)p.r(G)p.r(G)p.r(C)p.r(G)p.r(A)p.r(C)p.r(C)p.d(A)p.d(C)}$$$RNA1{StrandType:ss}|RNA2{StrandType:as}$” showed a normalised inhibition (eCFP-eYFP dual reporter) of 84.5%. In turn, “RNA1{r(G)p.r(U)p.r(C)p.r(C)p.r(A)p.r(G)p.r(U)p.r(U)p.r(G)p.r(G)p.r(G)p.r(G)p.r(A)p.r(U)p.r(G)p.r(A)p.r(U)p.r(A)p.r(U)p.d(T)p.d(T)}|RNA2{r(A)p.r(U)p.r(A)p.r(U)p.r(C)p.r(A)p.r(U)p.r(C)p.r(C)p.r(C)p.r(C)p.r(A)p.r(A)p.r(C)p.r(U)p.r(G)p.r(G)p.r(A)p.r(C)p.d(C)p.d(T)}$$$RNA1{StrandType:ss}|RNA2{StrandType:as}$” gave a normalised inhibition (eCFP-eYFP dual reporter) of 88.3%.

As to “RNA1{r(G)p.r(U)p.r(G)p.r(G)p.r(U)p.r(C)p.r(G)p.r(C)p.r(C)p.r(U)p.r(G)p.r(C)p.r(U)p.r(U)p.r(U)p.r(A)p.r(A)p.r(C)p.r(A)p.d(T)p.d(T)}|RNA2{r(U)p.r(G)p.r(U)p.r(U)p.r(A)p.r(A)p.r(A)p.r(G)p.r(C)p.r(A)p.r(G)p.r(G)p.r(C)p.r(G)p.r(A)p.r(C)p.r(C)p.r(A)p.r(C)p.d(T)p.d(G)}$$$RNA1{StrandType:ss}|RNA2{StrandType:as}$”, the normalised inhibition (eCFP-eYFP dual reporter) turned out to be 100%.

On to “RNA1{r(G)p.r(U)p.r(U)p.r(U)p.r(C)p.r(A)p.r(U)p.r(U)p.r(G)p.r(G)p.r(C)p.r(A)p.r(A)p.r(G)p.r(C)p.r(C)p.r(A)p.r(C)p.r(A)p.d(T)p.d(T)}|RNA2{r(U)p.r(G)p.r(U)p.r(G)p.r(G)p.r(C)p.r(U)p.r(U)p.r(G)p.r(C)p.r(C)p.r(A)p.r(A)p.r(U)p.r(G)p.r(A)p.r(A)p.r(A)p.r(C)p.d(A)p.d(T)}$$$RNA1{StrandType:ss}|RNA2{StrandType:as}$”, for which the normalised inhibition (eCFP-eYFP dual reporter) stood at 94.9%. Consider “RNA1{r(U)p.r(A)p.r(A)p.r(G)p.r(A)p.r(U)p.r(C)p.r(A)p.r(C)p.r(A)p.r(G)p.r(U)p.r(G)p.r(G)p.r(U)p.r(C)p.r(G)p.r(C)p.r(C)p.d(T)p.d(T)}|RNA2{r(G)p.r(G)p.r(C)p.r(G)p.r(A)p.r(C)p.r(C)p.r(A)p.r(C)p.r(U)p.r(G)p.r(U)p.r(G)p.r(A)p.r(U)p.r(C)p.r(U)p.r(U)p.r(A)p.d(G)p.d(A)}$$$RNA1{StrandType:ss}|RNA2{StrandType:as}$”, for which the normalised inhibition (eCFP-eYFP dual reporter) was determined as 55.6%. As to “RNA1{r(U)p.r(A)p.r(A)p.r(U)p.r(G)p.r(A)p.r(C)p.r(A)p.r(G)p.r(C)p.r(C)p.r(C)p.r(A)p.r(U)p.r(A)p.r(U)p.r(C)p.r(A)p.r(A)p.d(T)p.d(T)}|RNA2{r(U)p.r(U)p.r(G)p.r(A)p.r(U)p.r(A)p.r(U)p.r(G)p.r(G)p.r(G)p.r(C)p.r(U)p.r(G)p.r(U)p.r(C)p.r(A)p.r(U)p.r(U)p.r(A)p.d(G)p.d(G)}$$$RNA1{StrandType:ss}|RNA2{StrandType:as}$”, the normalised inhibition (eCFP-eYFP dual reporter) is 97.7%. Consider “RNA1{r(U)p.r(A)p.r(G)p.r(U)p.r(G)p.r(C)p.r(C)p.r(A)p.r(G)p.r(A)p.r(G)p.r(A)p.r(U)p.r(U)p.r(G)p.r(C)p.r(A)p.r(C)p.r(G)p.d(T)p.d(T)}|RNA2{r(C)p.r(G)p.r(U)p.r(G)p.r(C)p.r(A)p.r(A)p.r(U)p.r(C)p.r(U)p.r(C)p.r(U)p.r(G)p.r(G)p.r(C)p.r(A)p.r(C)p.r(U)p.r(A)p.d(G)p.d(G)}$$$RNA1{StrandType:ss}|RNA2{StrandType:as}$”, for which the normalised inhibition (eCFP-eYFP dual reporter) stood at 62.4%. The figure for “RNA1{r(U)p.r(A)p.r(U)p.r(C)p.r(A)p.r(A)p.r(G)p.r(G)p.r(C)p.r(G)p.r(G)p.r(U)p.r(G)p.r(U)p.r(A)p.r(U)p.r(U)p.r(C)p.r(U)p.d(T)p.d(T)}|RNA2{r(A)p.r(G)p.r(A)p.r(A)p.r(U)p.r(A)p.r(C)p.r(A)p.r(C)p.r(C)p.r(G)p.r(C)p.r(C)p.r(U)p.r(U)p.r(G)p.r(A)p.r(U)p.r(A)p.d(T)p.d(G)}$$$RNA1{StrandType:ss}|RNA2{StrandType:as}$” is 99.5%; for “RNA1{r(U)p.r(A)p.r(U)p.r(G)p.r(G)p.r(G)p.r(A)p.r(C)p.r(C)p.r(U)p.r(A)p.r(A)p.r(U)p.r(G)p.r(A)p.r(C)p.r(A)p.r(G)p.r(C)p.d(T)p.d(T)}|RNA2{r(G)p.r(C)p.r(U)p.r(G)p.r(U)p.r(C)p.r(A)p.r(U)p.r(U)p.r(A)p.r(G)p.r(G)p.r(U)p.r(C)p.r(C)p.r(C)p.r(A)p.r(U)p.r(A)p.d(A)p.d(T)}$$$RNA1{StrandType:ss}|RNA2{StrandType:as}$” it is 44.4%; for “RNA1{r(U)p.r(A)p.r(U)p.r(G)p.r(U)p.r(U)p.r(U)p.r(C)p.r(A)p.r(U)p.r(U)p.r(G)p.r(G)p.r(C)p.r(A)p.r(A)p.r(G)p.r(C)p.r(C)p.d(T)p.d(T)}|RNA2{r(G)p.r(G)p.r(C)p.r(U)p.r(U)p.r(G)p.r(C)p.r(C)p.r(A)p.r(A)p.r(U)p.r(G)p.r(A)p.r(A)p.r(A)p.r(C)p.r(A)p.r(U)p.r(A)p.d(T)p.d(C)}$$$RNA1{StrandType:ss}|RNA2{StrandType:as}$” it is 44.7%. The substance “RNA1{r(U)p.r(C)p.r(A)p.r(C)p.r(U)p.r(G)p.r(C)p.r(U)p.r(A)p.r(U)p.r(G)p.r(U)p.r(G)p.r(A)p.r(U)p.r(C)p.r(C)p.r(A)p.r(A)p.d(T)p.d(T)}|RNA2{r(U)p.r(U)p.r(G)p.r(G)p.r(A)p.r(U)p.r(C)p.r(A)p.r(C)p.r(A)p.r(U)p.r(A)p.r(G)p.r(C)p.r(A)p.r(G)p.r(U)p.r(G)p.r(A)p.d(A)p.d(C)}$$$RNA1{StrandType:ss}|RNA2{StrandType:as}$” showed a normalised inhibition (eCFP-eYFP dual reporter) of 95.2%. The figure for “RNA1{r(U)p.r(C)p.r(C)p.r(A)p.r(U)p.r(U)p.r(U)p.r(G)p.r(U)p.r(U)p.r(C)p.r(A)p.r(C)p.r(U)p.r(G)p.r(C)p.r(U)p.r(A)p.r(U)p.d(T)p.d(T)}|RNA2{r(A)p.r(U)p.r(A)p.r(G)p.r(C)p.r(A)p.r(G)p.r(U)p.r(G)p.r(A)p.r(A)p.r(C)p.r(A)p.r(A)p.r(A)p.r(U)p.r(G)p.r(G)p.r(A)p.d(T)p.d(A)}$$$RNA1{StrandType:ss}|RNA2{StrandType:as}$” is 98.4%; for “RNA1{r(U)p.r(C)p.r(U)p.r(A)p.r(A)p.r(A)p.r(G)p.r(U)p.r(U)p.r(C)p.r(U)p.r(U)p.r(U)p.r(U)p.r(A)p.r(U)p.r(C)p.r(C)p.r(A)p.d(T)p.d(T)}|RNA2{r(U)p.r(G)p.r(G)p.r(A)p.r(U)p.r(A)p.r(A)p.r(A)p.r(A)p.r(G)p.r(A)p.r(A)p.r(C)p.r(U)p.r(U)p.r(U)p.r(A)p.r(G)p.r(A)p.d(A)p.d(A)}$$$RNA1{StrandType:ss}|RNA2{StrandType:as}$” it is 64.2%. The figure for “RNA1{r(U)p.r(C)p.r(U)p.r(A)p.r(A)p.r(G)p.r(A)p.r(U)p.r(C)p.r(A)p.r(C)p.r(A)p.r(G)p.r(U)p.r(G)p.r(G)p.r(U)p.r(C)p.r(G)p.d(T)p.d(T)}|RNA2{r(C)p.r(G)p.r(A)p.r(C)p.r(C)p.r(A)p.r(C)p.r(U)p.r(G)p.r(U)p.r(G)p.r(A)p.r(U)p.r(C)p.r(U)p.r(U)p.r(A)p.r(G)p.r(A)p.d(A)p.d(T)}$$$RNA1{StrandType:ss}|RNA2{StrandType:as}$” is 43.3%. As to “RNA1{r(U)p.r(C)p.r(U)p.r(C)p.r(G)p.r(A)p.r(U)p.r(A)p.r(U)p.r(U)p.r(C)p.r(U)p.r(A)p.r(A)p.r(G)p.r(A)p.r(U)p.r(C)p.r(A)p.d(T)p.d(T)}|RNA2{r(U)p.r(G)p.r(A)p.r(U)p.r(C)p.r(U)p.r(U)p.r(A)p.r(G)p.r(A)p.r(A)p.r(U)p.r(A)p.r(U)p.r(C)p.r(G)p.r(A)p.r(G)p.r(A)p.d(C)p.d(A)}$$$RNA1{StrandType:ss}|RNA2{StrandType:as}$”, the normalised inhibition (eCFP-eYFP dual reporter) amounted to 98.1%. Consider “RNA1{r(U)p.r(C)p.r(U)p.r(G)p.r(C)p.r(A)p.r(G)p.r(G)p.r(U)p.r(C)p.r(C)p.r(A)p.r(G)p.r(U)p.r(U)p.r(G)p.r(G)p.r(G)p.r(G)p.d(T)p.d(T)}|RNA2{r(C)p.r(C)p.r(C)p.r(C)p.r(A)p.r(A)p.r(C)p.r(U)p.r(G)p.r(G)p.r(A)p.r(C)p.r(C)p.r(U)p.r(G)p.r(C)p.r(A)p.r(G)p.r(A)p.d(A)p.d(C)}$$$RNA1{StrandType:ss}|RNA2{StrandType:as}$”, for which the normalised inhibition (eCFP-eYFP dual reporter) was determined as 32.9%. The figure for “RNA1{r(U)p.r(G)p.r(A)p.r(C)p.r(A)p.r(A)p.r(U)p.r(U)p.r(C)p.r(A)p.r(U)p.r(U)p.r(U)p.r(U)p.r(C)p.r(C)p.r(U)p.r(A)p.r(C)p.d(T)p.d(T)}|RNA2{r(G)p.r(U)p.r(A)p.r(G)p.r(G)p.r(A)p.r(A)p.r(A)p.r(A)p.r(U)p.r(G)p.r(A)p.r(A)p.r(U)p.r(U)p.r(G)p.r(U)p.r(C)p.r(A)p.d(A)p.d(A)}$$$RNA1{StrandType:ss}|RNA2{StrandType:as}$” is 55.4%; for “RNA1{r(U)p.r(G)p.r(C)p.r(A)p.r(U)p.r(U)p.r(U)p.r(A)p.r(C)p.r(A)p.r(A)p.r(C)p.r(A)p.r(A)p.r(G)p.r(A)p.r(A)p.r(U)p.r(U)p.d(T)p.d(T)}|RNA2{r(A)p.r(A)p.r(U)p.r(U)p.r(C)p.r(U)p.r(U)p.r(G)p.r(U)p.r(U)p.r(G)p.r(U)p.r(A)p.r(A)p.r(A)p.r(U)p.r(G)p.r(C)p.r(A)p.d(A)p.d(C)}$$$RNA1{StrandType:ss}|RNA2{StrandType:as}$” it is 83.3%.

As to “RNA1{r(U)p.r(G)p.r(C)p.r(U)p.r(A)p.r(U)p.r(G)p.r(U)p.r(G)p.r(A)p.r(U)p.r(C)p.r(C)p.r(A)p.r(A)p.r(A)p.r(C)p.r(C)p.r(C)p.d(T)p.d(T)}|RNA2{r(G)p.r(G)p.r(G)p.r(U)p.r(U)p.r(U)p.r(G)p.r(G)p.r(A)p.r(U)p.r(C)p.r(A)p.r(C)p.r(A)p.r(U)p.r(A)p.r(G)p.r(C)p.r(A)p.d(G)p.d(T)}$$$RNA1{StrandType:ss}|RNA2{StrandType:as}$”, the normalised inhibition (eCFP-eYFP dual reporter) is 42.2%. “RNA1{r(U)p.r(G)p.r(C)p.r(U)p.r(U)p.r(U)p.r(A)p.r(A)p.r(C)p.r(A)p.r(A)p.r(U)p.r(U)p.r(U)p.r(C)p.r(U)p.r(A)p.r(A)p.r(A)p.d(T)p.d(T)}|RNA2{r(U)p.r(U)p.r(U)p.r(A)p.r(G)p.r(A)p.r(A)p.r(A)p.r(U)p.r(U)p.r(G)p.r(U)p.r(U)p.r(A)p.r(A)p.r(A)p.r(G)p.r(C)p.r(A)p.d(G)p.d(G)}$$$RNA1{StrandType:ss}|RNA2{StrandType:as}$” came in with a normalised inhibition (eCFP-eYFP dual reporter) of 92%.
